The results in this text go back to patent publication US10781181B2, “N-((het) arylmethyl)-heteroaryl-carboxamides compounds as plasma kallikrein inhibitors” (Kalvista Pharmaceuticals Limited, priority 2014, dated 2020).

The IC50 is the midpoint of a concentration-inhibition curve. As usually defined, the inhibition is how much of the control response was suppressed.

Where two headings read alike, the source gives them in different places. A value given as a limit tells only on which side of the number the result lay.

What all share (assay type): biochemical
One assay concerns the target Human KLK1 (Homo sapiens (Human), UniProt P06870). Kind of assay: Determination of the IC50 for KLK1. To be noted: human KLK1, 25° C., substrate H-DVal-Leu-Arg-AFC. As to the method:
Determination of the IC50 for KLK1
Human KLK1 (Callbiochem) was incubated at 25° C. with the fluorogenic substrate H-DVal-Leu-Arg-AFC and various concentrations of the test compound. Residual enzyme activity (initial rate of reaction) was determined by measuring the change in […] at 410 nm and the IC50 value for the test compound was determined.

The target of the next assay is Human plasma kallikrein (Homo sapiens (Human), UniProt P03952). Kind of assay: Determination of the IC50 for plasma kallikrein. To be noted: read-out: IC50 (human PKal). As for the experimental part:
Determination of the IC50 for Plasma Kallikrein
Human plasma kallikrein (Protogen) was incubated at 25° C. with the fluorogenic substrate H-DPro-Phe-Arg-AFC and various concentrations of the test compound. Residual enzyme activity (initial rate of reaction) was determined by measuring the change in […] at 410 nm and the IC50 value for the test compound was determined.

The target in the next assay is Human FXIa (Homo sapiens (Human), UniProt P03951). As to the kind of experiment: Determination of the % inhibition for FXIa. As to conditions: for inhibition at 40 µM: read-out: % Inhibition @ 40 μM (human FXIa). As for the experimental part:
Determination of the % Inhibition for FXIa
Human FXIa (Enzyme Research Laboratories) was incubated at 25° C. with the fluorogenic substrate Z-Gly-Pro-Arg-AFC and 40 μM of the test compound. Residual enzyme activity (initial rate of reaction) was determined by measuring the change in […].

[1] abbreviates: 40 μM of the test compound, human FXIa, 25° C.

Chain of Human FXIa (P03951 388-625 limits assumed): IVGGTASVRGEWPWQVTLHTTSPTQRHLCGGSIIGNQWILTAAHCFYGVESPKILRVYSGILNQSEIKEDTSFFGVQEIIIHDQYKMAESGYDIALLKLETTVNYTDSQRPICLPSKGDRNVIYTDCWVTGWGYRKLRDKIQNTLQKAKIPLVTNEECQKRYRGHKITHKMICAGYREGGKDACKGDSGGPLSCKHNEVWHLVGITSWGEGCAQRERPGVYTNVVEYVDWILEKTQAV
Chain of Human FXIa (P03951 19-387 partner limits assumed): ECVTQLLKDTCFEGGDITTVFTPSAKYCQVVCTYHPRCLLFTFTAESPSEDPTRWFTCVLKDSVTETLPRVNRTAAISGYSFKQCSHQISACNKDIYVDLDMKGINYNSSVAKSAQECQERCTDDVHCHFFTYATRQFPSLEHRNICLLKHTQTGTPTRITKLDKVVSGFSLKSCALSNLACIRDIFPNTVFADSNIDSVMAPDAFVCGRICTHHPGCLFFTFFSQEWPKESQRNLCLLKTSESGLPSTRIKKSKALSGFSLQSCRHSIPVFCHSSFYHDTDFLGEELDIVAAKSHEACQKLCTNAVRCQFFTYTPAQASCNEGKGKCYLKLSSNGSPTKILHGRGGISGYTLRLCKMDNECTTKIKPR
Chain of Human plasma kallikrein (P03952 391-638): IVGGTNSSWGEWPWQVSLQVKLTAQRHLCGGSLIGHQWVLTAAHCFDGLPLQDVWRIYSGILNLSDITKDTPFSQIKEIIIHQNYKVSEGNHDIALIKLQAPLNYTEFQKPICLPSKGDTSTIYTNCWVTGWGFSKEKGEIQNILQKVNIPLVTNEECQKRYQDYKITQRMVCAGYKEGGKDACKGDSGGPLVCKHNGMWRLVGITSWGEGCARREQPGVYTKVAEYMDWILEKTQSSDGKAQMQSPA
Chain of Human plasma kallikrein (P03952 20-390 partner): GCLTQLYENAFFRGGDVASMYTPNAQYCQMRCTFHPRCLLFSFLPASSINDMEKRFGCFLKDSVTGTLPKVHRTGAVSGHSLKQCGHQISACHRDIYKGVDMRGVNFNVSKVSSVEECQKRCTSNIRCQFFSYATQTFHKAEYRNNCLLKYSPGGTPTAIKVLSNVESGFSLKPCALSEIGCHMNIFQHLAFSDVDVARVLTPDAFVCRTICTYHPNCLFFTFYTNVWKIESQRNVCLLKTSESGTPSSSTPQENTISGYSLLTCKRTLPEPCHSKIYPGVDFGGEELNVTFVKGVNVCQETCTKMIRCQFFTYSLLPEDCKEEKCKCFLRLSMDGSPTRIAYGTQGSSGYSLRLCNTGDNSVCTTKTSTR
Chain of Human KLK1 (P06870 25-262): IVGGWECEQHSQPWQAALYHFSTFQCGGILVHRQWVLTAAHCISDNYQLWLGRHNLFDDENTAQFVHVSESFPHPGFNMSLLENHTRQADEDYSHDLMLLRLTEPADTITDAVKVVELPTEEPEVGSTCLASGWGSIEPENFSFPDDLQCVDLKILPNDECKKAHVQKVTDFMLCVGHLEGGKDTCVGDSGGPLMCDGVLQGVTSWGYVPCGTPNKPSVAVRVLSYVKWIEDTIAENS

As to `COc1cc(Cn2cc(C(=O)NCCOc3cccc(Cl)c3)c(N)n2)ccn1` [Example 73, 3-amino-N-[2-(3-chlorophenoxy)ethyl]-1-[(2-methoxypyridin-4-yl)methyl]pyrazole-4-carboxamide], the IC50 was over 40 µM on Human KLK1 and over 10 µM on Human plasma kallikrein. Further, the inhibition at 40 µM on Human FXIa (setting [1]) came to 0%.

As for `Nc1nn(Cc2ccc(Cn3ccccc3=O)cc2)cc1C(=O)N[C@@H]1CCN(c2cccc(Cl)c2)C1=O` [Example 110, 3-amino-N-[(3R)-1-(3-chlorophenyl)-2-oxopyrrolidin-3-yl]-1-({4-[(2-oxopyridin-1-yl)methyl]phenyl}methyl)pyrazole-4-carboxamide], the IC50 at Human KLK1 is over 40 µM; at Human plasma kallikrein, 0.004 µM. Moreover, at Human FXIa (setting [1]), the inhibition at 40 µM worked out at 13%.

For `CC(=O)N(C)Cc1ccc(Cn2cc(C(=O)NCCOc3cccc(Cl)c3)c(N)n2)cc1` [Example 82, 3-amino-N-[2-(3-chlorophenoxy)ethyl]-1-({4-[(N-methylacetamido)methyl]phenyl}methyl)pyrazole-4-carboxamide], the IC50 against Human KLK1 was over 40 µM; at Human plasma kallikrein it was 0.71 µM. Moreover, the inhibition at 40 µM at Human FXIa (setting [1]) was found to be 0%.

As for `Nc1nn(Cc2ccc(Cn3ccccc3=O)cc2)cc1C(=O)NCCOc1cccc(Cl)c1` [Example 1], the 50% inhibitory concentration (IC50) is over 10 µM against Human KLK1 and 0.0029 µM on Human plasma kallikrein. In addition, the inhibition at 40 µM at Human FXIa (setting [1]) was 2%.

With `Nc1nn(Cc2ccc(Cn3ccccc3=O)cc2)cc1C(=O)N[C@H]1CCN(c2cc(Cl)ccn2)C1` [Example 112, 3-amino-N-[(3S)-1-(4-chloropyridin-2-yl)pyrrolidin-3-yl]-1-({4-[(2-oxopyridin-1-yl)methyl]phenyl}methyl)pyrazole-4-carboxamide], the half-maximal inhibitory concentration (IC50) against Human KLK1 was over 40 µM; on Human plasma kallikrein, 7.46 µM. Moreover, the inhibition at 40 µM at Human FXIa (setting [1]) came out at 29%.

Turning to `Nc1nn(Cc2ccc(Cn3ccccc3=O)cc2)cc1C(=O)N[C@@H]1CCN(Cc2cccc(Cl)c2)C1` [Example 108, 3-amino-N-[(3R)-1-[(3-chlorophenyl)methyl]pyrrolidin-3-yl]-1-({4-[(2-oxopyridin-1-yl)methyl]phenyl}methyl)pyrazole-4-carboxamide], the IC50 against Human KLK1 was over 40 µM; at Human plasma kallikrein, 0.299 µM. In addition, the inhibition at 40 µM at Human FXIa (setting [1]) stood at 0%.

As for `Nc1nn(Cc2cccc(Br)c2)cc1C(=O)NCCOc1cccc(Cl)c1` [Example 56, 3-amino-1-[(3-bromophenyl)methyl]-N-[2-(3-chlorophenoxy)ethyl]pyrazole-4-carboxamide], the results for the IC50 against Human KLK1 and at Human plasma kallikrein were over 40 µM and 8.49 µM, respectively. On Human FXIa, the inhibition at 40 µM came to 0%.

With `C[C@@H](NC(=O)c1cn(Cc2ccc(Cn3ccccc3=O)cc2)nc1N)C(=O)N(C)c1cccc(Cl)c1` [Example 117, (2R)-2-{[3-amino-1-({4-[(2-oxopyridin-1-yl)methyl]phenyl}methyl)pyrazol-4-yl]formamido}-N-(3-chlorophenyl)-N-methylpropanamide], the concentration for half-maximal inhibition (IC50) at Human KLK1 is over 40 µM; at Human plasma kallikrein it was 3.02 µM. Moreover, at Human FXIa (setting [1]), the inhibition at 40 µM was 4%.

Turning to `Nc1c(C(=O)NCCOc2cccc(Cl)c2)cnn1Cc1ccc(Cn2ccccc2=O)cc1` [Example 17, 5-amino-N-[2-(3-chlorophenoxy)ethyl]-1-({4-[(2-oxopyridin-1-yl)methyl]phenyl}methyl)pyrazole-4-carboxamide], the concentration for half-maximal inhibition (IC50) was over 10 µM at Human KLK1 and 0.096 µM on Human plasma kallikrein. Besides, the inhibition at 40 µM on Human FXIa (setting [1]) stood at 2%.

Consider `Cn1ncc2cc(Cn3cc(C(=O)NCCOc4cccc(Cl)c4)c(N)n3)ccc21` [Example 93, 3-amino-N-[2-(3-chlorophenoxy)ethyl]-1-[(1-methylindazol-5-yl)methyl]pyrazole-4-carboxamide], for which the values for the half-maximal inhibitory concentration (IC50) against Human KLK1 and on Human plasma kallikrein were over 40 µM and over 10 µM, respectively. Moreover, the inhibition at 40 µM on Human FXIa (setting [1]) was 2%.

Regarding `Nc1nn(Cc2ccc(Cn3ccccc3=O)cc2)cc1C(=O)N[C@H]1CCN(c2cccc(Cl)c2)C1=O` [Example 107, 3-amino-N-[(3S)-1-(3-chlorophenyl)-2-oxopyrrolidin-3-yl]-1-({4-[(2-oxopyridin-1-yl)methyl]phenyl}methyl)pyrazole-4-carboxamide], the IC50 at Human KLK1 was over 40 µM; at Human plasma kallikrein it was 0.0048 µM. Moreover, on Human FXIa (setting [1]), the inhibition at 40 µM came to 2%.

For `Cc1ccc(OCCNC(=O)c2cn(Cc3ccc(Cn4ccccc4=O)cc3)nc2N)cc1Cl` [Example 15, 3-amlno-N-[2-(3-chloro-4-methylphenoxy)ethyl]-1-({4-[(2-oxopyridin-1-yl)methyl]phenyl}methyl)pyrazole-4-carboxamide], the IC50 is over 40 µM against Human KLK1 and 0.0246 µM on Human plasma kallikrein. For the same molecule, the “% Inhibition @ 40 μM (human FXIa)” value on Human FXIa (setting [1]) turned out to be 1%.

Take `CN(C)C(=O)N(C)Cc1ccc(Cn2cc(C(=O)NCCOc3cccc(Cl)c3)c(N)n2)cc1` [Example 83, 3-amino-N-[2-(3-chlorophenoxy)ethyl]-1-[(4-{[(dimethylcarbamoyl)(methyl)amino]methyl}phenyl)methyl]pyrazole-4-carboxamide]: the concentration for half-maximal inhibition (IC50) on Human KLK1 is over 40 µM; on Human plasma kallikrein it was 0.298 µM. Also, the inhibition at 40 µM on Human FXIa (setting [1]) was 0%.

Regarding `Nc1nn(Cc2ccc(N3CCCC3)nc2)cc1C(=O)NCCOc1cccc(Cl)c1` [Example 49, 3-amino-N-[2-(3-chlorophenoxy)ethyl]-1-{[6-(pyrrolidin-1-yl)pyridin-3-yl]methyl}pyrazole-4-carboxamide], the concentration for half-maximal inhibition (IC50) against Human KLK1 was over 40 µM; at Human plasma kallikrein, 0.847 µM. Moreover, on Human FXIa (setting [1]), the inhibition at 40 µM came to 0%.

With `Nc1nn(Cc2ccc(Cn3ccccc3=O)cc2)cc1C(=O)N[C@H]1CCN(Cc2cccc(Cl)c2)C1` [Example 109, 3-amino-N-[(3S)-1-[(3-chlorophenyl)methyl]pyrrolidin-3-yl]-1-({4-[(2-oxopyridin-1-yl)methyl]phenyl}methyl)pyrazole-4-carboxamide], the half-inhibitory concentration (IC50) was over 40 µM at Human KLK1 and 0.384 µM on Human plasma kallikrein. Besides, at Human FXIa (setting [1]), the inhibition at 40 µM is 0%.

Take `Cc1ccc(Cl)cc1OCCNC(=O)c1cn(Cc2ccc(Cn3ccccc3=O)cc2)nc1N` [Example 14, 3-amino-N-[2-(5-chloro-2-methylphenoxy)ethyl]-1-({4-[(2-oxopyridin-1-yl)methyl]phenyl}methyl)pyrazole-4-carboxamide]: the 50% inhibitory concentration (IC50) is over 40 µM against Human KLK1 and 0.161 µM on Human plasma kallikrein. Besides, the inhibition at 40 µM on Human FXIa (setting [1]) was 0%.

With `Nc1nn(Cc2ccc(CN3CCCCC3=O)cc2)cc1C(=O)NCCOc1cccc(Cl)c1` [Example 77, 3-amino-N-[2-(3-chlorophenoxy)ethyl]-1-({4-[(2-oxopiperidin-1-yl)methyl]phenyl}methyl)pyrazole-4-carboxamide], the IC50 was over 40 µM against Human KLK1 and 0.112 µM on Human plasma kallikrein. Also, the inhibition at 40 µM at Human FXIa (setting [1]) came out at 0%.

For `Nc1nn(Cc2ccc(C(=O)N3CCCC3)cc2)cc1C(=O)NCCOc1cccc(Cl)c1` [Example 51, 3-amino-N-[2-(3-chlorophenoxy)ethyl]-1-({4-[(pyrrolidin-1-yl)carbonyl]phenyl}methyl)pyrazole-4-carboxamide], the figures for the half-maximal inhibitory concentration (IC50) against Human KLK1 and at Human plasma kallikrein were over 40 µM and 0.427 µM, respectively. In addition, the inhibition at 40 µM at Human FXIa (setting [1]) amounted to 51%.

Take `Nc1nn(Cc2cccc(C(=O)N3CCCC3)c2)cc1C(=O)NCCOc1cccc(Cl)c1` [Example 70, 3-amino-N-[2-(3-chlorophenoxy)ethyl]-1-({3-[(pyrrolidin-1-yl)carbonyl]phenyl}methyl)pyrazole-4-carboxamide]: the results for the half-inhibitory concentration (IC50) on Human KLK1 and on Human plasma kallikrein were over 40 µM and over 10 µM, respectively. Moreover, the inhibition at 40 µM at Human FXIa (setting [1]) worked out at 6%.

`Nc1nn(Cc2ccc(COc3ncccn3)cc2)cc1C(=O)NCCOc1cccc(Cl)c1` [Example 75, 3-amino-N-[2-(3-chlorophenoxy)ethyl]-1-({4-[(pyrimidin-2-yloxy)methyl]phenyl}methyl)pyrazole-4-carboxamide]: the IC50 at Human KLK1 is over 40 µM; on Human plasma kallikrein it was 3.67 µM. For the same molecule, at Human FXIa (setting [1]), the inhibition at 40 µM came to 0%.

As for `O=C(NCCOc1cccc(Cl)c1)c1cn(Cc2ccc(Cn3ccccc3=O)cc2)nc1C1CC1` [Example 5, N-[2-(3-chlorophenoxy)ethyl]-3-cyclopropyl-1-({4-[(2-oxopyridin-1-yl)methyl]phenyl}methyl)pyrazole-4-carboxamide], the half-inhibitory concentration (IC50) is over 10 µM on Human KLK1 and 0.0684 µM on Human plasma kallikrein. Besides, the inhibition at 40 µM on Human FXIa (setting [1]) turned out to be 0%.

Turning to `CNC(=O)c1ccc(Cn2cc(C(=O)NCCOc3cccc(Cl)c3)c(N)n2)cc1` [Example 61, 3-amino-N-[2-(3-chlorophenoxy)ethyl]-1-{[4-(methylcarbamoyl)phenyl]methyl}pyrazole-4-carboxamide], the 50% inhibitory concentration (IC50) against Human KLK1 was over 40 µM; at Human plasma kallikrein, 7.25 µM. Also, the inhibition at 40 µM at Human FXIa (setting [1]) came out at 0%.

For the molecule `CN(Cc1ccc(Cn2cc(C(=O)NCCOc3cccc(Cl)c3)c(N)n2)cc1)c1ccccn1` [Example 87, 3-amino-N-[2-(3-chlorophenoxy)ethyl]-1-[(4-{[methyl(pyridin-2-yl)amino]methyl}phenyl)methyl]pyrazole-4-carboxamide], the IC50 against Human KLK1 was over 40 µM; at Human plasma kallikrein, 0.78 µM. The inhibition at 40 µM on Human FXIa (setting [1]) was found to be 0%.
